The source of these data is patent US5264593A, “Cholesterol lowering compounds” (Merck & Co., Inc., priority 1993, dated 1993).

In the experiment the target is T1, squalene synthetase (human HepG2 cell enzyme) (Homo sapiens, UniProt P37268).
T1 construct: SOURCE: HEPG2 CELL LINE (Liver, hepatoblastoma, Human) ATCC No. HB 8065; endogenous in cells; host or cells: HepG2 (ATCC HB 8065), sonicated cell extract
T1 sequence (P37268 1-417): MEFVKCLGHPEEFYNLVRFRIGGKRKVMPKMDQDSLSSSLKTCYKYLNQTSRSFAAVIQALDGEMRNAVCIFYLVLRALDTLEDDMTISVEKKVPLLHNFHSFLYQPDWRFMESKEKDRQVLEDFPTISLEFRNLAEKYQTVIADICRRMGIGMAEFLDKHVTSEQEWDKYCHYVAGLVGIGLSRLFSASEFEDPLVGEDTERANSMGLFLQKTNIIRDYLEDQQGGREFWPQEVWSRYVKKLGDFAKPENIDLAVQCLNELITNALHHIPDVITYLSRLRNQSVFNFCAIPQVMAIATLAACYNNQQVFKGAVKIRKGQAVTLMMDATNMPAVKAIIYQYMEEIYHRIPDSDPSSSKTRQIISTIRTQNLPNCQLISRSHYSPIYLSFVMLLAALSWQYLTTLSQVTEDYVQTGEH
Put plainly: Squalene Synthase Assay (human HepG2 cell enzyme, 3H-farnesyl pyrophosphate substrate). Format: biochemical. The following applies: 3 μM 3H-farnesyl pyrophosphate, pH 7.5, 30° C., 20 minutes. On the procedure: The intrinsic squalene synthetase inhibitory activity of the compounds of this invention was measured by the standard in vitro protocol described below:
PREPARATION OF HUMAN HepG2 cell ENZYME
1. SOURCE: HEPG2 CELL LINE (Liver, hepatoblastoma, Human) ATCC No. HB 8065
2. CELL GROWTH AND MAINTENANCE
Culture Medium: Minimum essential medium (MEM) with non-essential amino acids, sodium pyruvate, and 10% fetal bovine serum. The medium was changed twice weekly. […] The growth medium is prepared as listed below.
Subculture Procedure: Remove medium, wash with PBS, add fresh trypsin (0.25%)-EDTA (0.02%) with Hank's Balanced Salt solution and let flask stand for a minute and remove the trypsin solution. Incubate flask at 37° C. until cells detached. Add fresh medium, disperse and dispense cells into new flasks. Subcultivation ratio: 1:6.
PREPARATION of Delipidated Serum: Fetal calf serum (100 ml) and CAB-O-Sil (2 grams) stir overnight at 4° C. and centrifuge at 16,000 rpm for 5 hrs. […]
For each reaction, 55 μl of buffer mixture was taken with 5 μl of an inhibitor solution in DMSO and 10 μl of diluted enzyme (1 to 250 as described in the enzyme preparation, the final protein concentration of enzyme in the assay is 2 μg per ml.). […] 150 μl of heptane layer was then removed into a 96 deep well plate and mixed with 150 μl of scintillation fluid and the radioactivity was determined by liquid scintillation counting. […]

Turning to `C=C(CCC12OCC(OC(C)=O)C(C(=O)O)(O1)C(OC(=O)/C=C/C(C)CC(C)CC)C2O)C(OC(C)=O)C(C)Cc1ccccc1` (stereo not drawn) [Example 1, 4-Acetate of 3,4-decarboxy-4-epi-Zaragozic Acid A], the midpoint of inhibition, the IC50, lay at 2.95 nM.
`C=C(CCC12OCC(OC(=O)C(C)(C)C)C(C(=O)O)(O1)C(OC(=O)/C=C/C(C)CC(C)CC)C2O)C(OC(C)=O)C(C)Cc1ccccc1` (stereo not drawn) [Example 2, 4-Trimethylacetate of 3,4-decarboxy-4-epi-Zaragozic Acid A]: half-maximal inhibition (IC50) was put at 58.2 nM.
